Converted amounts (≈) assume the structure as drawn. Blank lines part the entries; values can stand above or below the molecule they belong to.
Experiments:
E. coli K12 = assay: Minimum inhibitory concentration (MIC), bioscreen spectrophotometer; format: cell-based; conditions: Escherichia coli, 24 h incubation at 37° C., bioscreen spectrophotometer at 600 nm
Excerpt: A range of different concentrations of antibiotic were used to establish the MIC employing a standardised method^17.

[1] = tested on: Staphylococcus aureus (Gram-positive); assay: Susceptibility/resistance of the selected strain (Table 10); format: cell-based; conditions: Experimental Work 4
[2] = tested on: Psuedomonas aeruginosa (Gram-negative); assay: as above; format: cell-based, Pseudomonas aeruginosa; conditions: Experimental Work 4
[3] = tested on: Staphylococcus epidermidis (Gram-positive); assay: as above; format: cell-based; conditions: Experimental Work 4
S. aureus = assay: UV-Vis spectroscopy with PC-DFA cluster plot, phenotypic shift after antibiotic exposure vs unexposed control; format: cell-based, Staphylococcus aureus
Excerpt: (§1) A first stage of data analysis involved the use of principal component analysis (PCA). […] Its aim is to simplify spectral data from a high number of variables into a smaller number of indices (each called a “principal component” or “PC”), simultaneously retaining the original data variance by identifying data patterns. This is achieved as each PC becomes a representation of a group of data with a linear relationship, at the same time being completely uncorrelated to the subsequent PC which corresponds to a different data dimension. PCs are arranged in a descending order in terms of the degree of original data variance they represent with the first PC representing the greatest amount of original data variance. Addition of all the PCs thus yields the entire original data variance, with the first 5 PCs nearly always corresponding to almost 95% of that variance^11,20-22.
In a second stage, discriminant function analysis (DFA), a supervised technique, was used. This chemometrics technique forms a model by taking into account the structure of data collected from the experiment, thus having a priori experimental knowledge. Using this knowledge it then discriminates data into groups (bacterial classes of treatment) based on the PCs obtained from the PCA in an attempt to reduce intra-group variance and widen inter-group variance^23.
For each strain, 3 mL of nutrient broth was inoculated with the overnight grown cells to a final OD600nm=0.1, followed by dispensing the samples as 200 μL aliquots in a sterile Corning 96 well plate (5 biological replicates per strain for each condition). All plates were sealed using sterile Breath-Easy sealing membranes to reduce sample evaporation. The plates were incubated at 37° C. with 200 rpm shaking for 150 min.
The plates were transferred to one of two BioTek Synergy HT microplate readers programmed for 30 min shaking with medium speed at 37° C. followed by a full scan (200-999 nm range) of all the samples with 2 nm resolution.
In general, unless otherwise stated, the material and methods for Experimental Work 4 were the same as for Experimental Work 3, except that a single Thermo Biomate 5 UV-Vis spectrometer across spectral range of 300-800 nm was used for data collection in Experimental Work 4.

P. aeruginosa = assay: as above; format: cell-based, Pseudomonas aeruginosa; conditions: after both 10 minutes and 30 minutes
Excerpt: as §1
(§2) In a second stage, discriminant function analysis (DFA), a supervised technique, was used. This chemometrics technique forms a model by taking into account the structure of data collected from the experiment, thus having a priori experimental knowledge. […]
(§3) The plates were transferred to one of two BioTek Synergy HT microplate readers programmed for 30 min shaking with medium speed at 37° C. followed by a full scan (200-999 nm range) of all the samples with 2 nm resolution. […]

S. epidermidis = assay: as above; format: cell-based, Staphylococcus epidermidis; conditions: after both 10 minutes and 30 minutes
Excerpt: as §1, §2, §3

- MIC (E. coli K12): 10 µg/mL (≈ 17.1 µM)
SMILES: NCC[C@H](O)C(=O)N[C@@H]1C[C@H](N)[C@@H](O[C@H]2O[C@H](CN)[C@@H](O)[C@H](O)[C@H]2O)[C@H](O)[C@H]1O[C@H]1O[C@H](CO)[C@@H](O)[C@H](N)[C@H]1O [Amikacin]

SMILES: CC1(C)S[C@@H]2[C@H](NC(=O)[C@H](N)c3ccccc3)C(=O)N2[C@H]1C(=O)O [Ampicillin]
- MIC (E. coli K12): 10 µg/mL (≈ 28.6 µM)
- Sensitive / Resistant to antibiotic [1]: Sensitive
- Sensitive / Resistant to antibiotic [2]: Resistant
- Sensitive / Resistant to antibiotic [3]: Resistant
- shift in the cluster plot (PC-DFA) (S. aureus; after 30 minutes exposure): ~1.5 units
- shift in the cluster plot (PC-DFA) (S. aureus; at 10 minutes exposure): minimal
- shift in the cluster plot (PC-DFA) (P. aeruginosa): minimal
- shift in the cluster plot (PC-DFA) (S. epidermidis): minimal

SMILES: O=C(O)c1cn(C2CC2)c2cc(N3CCNCC3)c(F)cc2c1=O [Ciprofloxacin]
- Sensitive / Resistant to antibiotic [1]: Sensitive
- Sensitive / Resistant to antibiotic [2]: Sensitive
- Sensitive / Resistant to antibiotic [3]: Sensitive

SMILES: COc1cc(Cc2cnc(N)nc2N)cc(OC)c1OC [Trimethoprim]
- MIC (E. coli K12): 300 µg/mL (≈ 1030 µM)
- Sensitive / Resistant to antibiotic [1]: Resistant
- Sensitive / Resistant to antibiotic [2]: Resistant
- Sensitive / Resistant to antibiotic [3]: Resistant
- shift in the cluster plot (PC-DFA) (S. aureus; after 30 minutes exposure): ~4 units
- shift in the cluster plot (PC-DFA) (S. aureus; at 10 minutes exposure): minimal
- shift in the cluster plot (PC-DFA) (P. aeruginosa): ~3 units
- shift in the cluster plot (PC-DFA) (S. epidermidis): ~3 units
